From ChEMBL document CHEMBL3046298, “Synthesis and metal ion binding activity of methyl 12-amino-13-nitro-7-oxo dehydrodeisopropylabietate derivatives” (Med Chem Res, 2012)

Tests used:
[1] = Metal chelating activity of the compound assessed as formation of iron complex by fluorescence quenching assay; type: physicochemical
[2] = Metal chelating activity of the compound assessed as formation of copper complex by fluorescence quenching assay; type: physicochemical

Structure (SMILES) | Ka [1] [L/mol] | Ka [2] [L/mol]
COC(=O)[C@]1(C)CCC[C@]2(C)c3cc(Nc4ccc(OC)cc4)c([N+](=O)[O-])cc3C(=O)C[C@@H]12 | 165 | 89.2
COC(=O)[C@]1(C)CCC[C@]2(C)c3cc(Nc4ccc(C)cc4)c([N+](=O)[O-])cc3C(=O)C[C@@H]12 | 122.7 | 60.7
COC(=O)[C@]1(C)CCC[C@]2(C)c3cc(Nc4ccccc4)c([N+](=O)[O-])cc3C(=O)C[C@@H]12 | 106.9 | 60.7
COC(=O)[C@]1(C)CCC[C@]2(C)c3cc(NCCN)c([N+](=O)[O-])cc3C(=O)C[C@@H]12 | 305.9 | 97.6
COC(=O)[C@]1(C)CCC[C@]2(C)c3cc(NCCO)c([N+](=O)[O-])cc3C(=O)C[C@@H]12 | 108 | 70.3
COC(=O)[C@]1(C)CCC[C@]2(C)c3cc(NC(C)(C)C)c([N+](=O)[O-])cc3C(=O)C[C@@H]12 | 103.6 | 175.6
CCCCNc1cc2c(cc1[N+](=O)[O-])C(=O)C[C@H]1[C@](C)(C(=O)OC)CCC[C@]21C | 181.7 | 137.2
COC(=O)[C@]1(C)CCC[C@]2(C)c3cc(NC(C)C)c([N+](=O)[O-])cc3C(=O)C[C@@H]12 | 168.3 | 102.9
CCCNc1cc2c(cc1[N+](=O)[O-])C(=O)C[C@H]1[C@](C)(C(=O)OC)CCC[C@]21C | 135.7 | 61.7
CCNc1cc2c(cc1[N+](=O)[O-])C(=O)C[C@H]1[C@](C)(C(=O)OC)CCC[C@]21C | 138.3 | 81.3
CNc1cc2c(cc1[N+](=O)[O-])C(=O)C[C@H]1[C@](C)(C(=O)OC)CCC[C@]21C | 186 | 107
